Results published in publication PMC4823954, “From fighting depression to conquering tumors: a novel tricyclic thiazepine compound as a tubulin polymerization inhibitor” (Cell Death & Disease, 2016).

Key:
Assay in all cases: KINOMEscan
Type in all cases: binding
Details in all cases: read-out: % Ctrl
S6K1 = molecular target: T1, S6K1 (Homo sapiens, UniProt P23443)
T1 construct: purchased DiscoveRx KINOMEscan
Method in brief: (§1)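 Competition binding panel of 442 non-mutant kinases: test compound at 5 and 10 μM competed with an active-site-directed ligand for 1 h with shaking. Bound kinase was eluted with 0.5 μM ligand and quantified by qPCR; %Ctrl = (compound − positive control)/(DMSO − positive control) × 100, lower meaning tighter binding.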

CDK4-cyclinD1 = molecular target: T2, CDK4-cyclinD1 (Homo sapiens, UniProt P11802)
T2 construct: purchased DiscoveRx KINOMEscan
Method in brief: as §1

AURKC = molecular target: T3, AURKC (Homo sapiens, UniProt Q9UQB9)
T3 construct: purchased DiscoveRx KINOMEscan
Method in brief: as §1

MAP4K2 = molecular target: T4, MAP4K2 (Homo sapiens, UniProt Q12851)
T4 construct: purchased DiscoveRx KINOMEscan
T4 sequence (Q12851 whole entry): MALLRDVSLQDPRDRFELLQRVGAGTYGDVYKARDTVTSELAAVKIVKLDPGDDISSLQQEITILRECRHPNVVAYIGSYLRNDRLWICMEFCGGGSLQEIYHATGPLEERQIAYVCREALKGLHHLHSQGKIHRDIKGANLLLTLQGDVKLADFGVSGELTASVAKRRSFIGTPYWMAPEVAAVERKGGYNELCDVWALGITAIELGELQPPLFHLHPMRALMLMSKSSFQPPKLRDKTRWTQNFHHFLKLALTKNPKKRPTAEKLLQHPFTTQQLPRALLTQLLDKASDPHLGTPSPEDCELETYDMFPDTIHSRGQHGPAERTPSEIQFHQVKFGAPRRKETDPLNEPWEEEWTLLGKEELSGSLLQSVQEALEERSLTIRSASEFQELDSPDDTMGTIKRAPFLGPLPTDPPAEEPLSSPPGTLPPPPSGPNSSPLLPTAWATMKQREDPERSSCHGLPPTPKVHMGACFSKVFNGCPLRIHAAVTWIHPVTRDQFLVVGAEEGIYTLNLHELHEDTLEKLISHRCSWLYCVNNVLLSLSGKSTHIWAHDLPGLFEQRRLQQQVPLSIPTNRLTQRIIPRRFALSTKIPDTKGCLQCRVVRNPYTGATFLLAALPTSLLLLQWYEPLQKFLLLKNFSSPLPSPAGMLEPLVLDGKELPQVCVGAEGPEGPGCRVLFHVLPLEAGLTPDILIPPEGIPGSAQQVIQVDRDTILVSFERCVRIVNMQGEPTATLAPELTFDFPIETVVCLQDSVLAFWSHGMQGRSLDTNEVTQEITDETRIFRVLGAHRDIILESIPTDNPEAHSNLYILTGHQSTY
Method in brief: as §1

MYLK2 = molecular target: T5, MYLK2 (Homo sapiens, UniProt Q9H1R3)
T5 construct: purchased DiscoveRx KINOMEscan
T5 sequence (Q9H1R3 whole entry): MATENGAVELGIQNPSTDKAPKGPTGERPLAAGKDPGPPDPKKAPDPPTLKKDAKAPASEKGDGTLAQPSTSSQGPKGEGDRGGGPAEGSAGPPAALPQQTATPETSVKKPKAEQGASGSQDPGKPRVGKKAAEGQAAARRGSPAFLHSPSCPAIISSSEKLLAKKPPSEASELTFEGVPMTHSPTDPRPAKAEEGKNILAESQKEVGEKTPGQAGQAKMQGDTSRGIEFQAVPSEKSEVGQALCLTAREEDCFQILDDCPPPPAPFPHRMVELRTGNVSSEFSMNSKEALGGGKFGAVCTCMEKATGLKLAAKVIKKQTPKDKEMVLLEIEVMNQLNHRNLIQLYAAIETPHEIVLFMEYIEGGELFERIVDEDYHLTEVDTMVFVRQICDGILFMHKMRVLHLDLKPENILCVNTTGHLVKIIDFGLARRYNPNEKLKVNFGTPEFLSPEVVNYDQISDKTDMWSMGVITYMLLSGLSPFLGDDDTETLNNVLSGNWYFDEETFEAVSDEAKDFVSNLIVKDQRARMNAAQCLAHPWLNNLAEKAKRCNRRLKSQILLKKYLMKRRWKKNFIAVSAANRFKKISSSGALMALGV
Method in brief: as §1

[1] = molecular target: T6, RPS6KA4(Kin.Dom.1-N-terminal) (Homo sapiens, UniProt O75676)
T6 construct: RPS6KA4(Kin.Dom.1-N-terminal); purchased DiscoveRx KINOMEscan
Method in brief: as §1

RET = molecular target: T7, RET (Homo sapiens, UniProt P07949)
T7 construct: purchased DiscoveRx KINOMEscan
Method in brief: as §1

PRKCI = molecular target: T8, PRKCI (Homo sapiens, UniProt P41743)
T8 construct: purchased DiscoveRx KINOMEscan
Method in brief: as §1

LOK = molecular target: T9, LOK (Homo sapiens, UniProt O94804)
T9 construct: purchased DiscoveRx KINOMEscan
Method in brief: as §1

TRKB = molecular target: T10, TRKB (Homo sapiens, UniProt Q16620)
T10 construct: purchased DiscoveRx KINOMEscan
Method in brief: as §1

ROCK2 = molecular target: T11, ROCK2 (Homo sapiens, UniProt O75116)
T11 construct: purchased DiscoveRx KINOMEscan
Method in brief: as §1

SRC = molecular target: T12, SRC (Homo sapiens, UniProt P12931)
T12 construct: purchased DiscoveRx KINOMEscan
Method in brief: as §1

EGFR(L858R,T790M) = molecular target: T13, EGFR(L858R,T790M) (Homo sapiens, UniProt P00533, L858R/T790M)
T13 construct: purchased DiscoveRx KINOMEscan

MAPKAPK5 = molecular target: T14, MAPKAPK5 (Homo sapiens, UniProt Q8IW41)
T14 construct: purchased DiscoveRx KINOMEscan
Method in brief: as §1

EPHB1 = molecular target: T15, EPHB1 (Homo sapiens, UniProt P54762)
T15 construct: purchased DiscoveRx KINOMEscan
T15 sequence (P54762 18-984): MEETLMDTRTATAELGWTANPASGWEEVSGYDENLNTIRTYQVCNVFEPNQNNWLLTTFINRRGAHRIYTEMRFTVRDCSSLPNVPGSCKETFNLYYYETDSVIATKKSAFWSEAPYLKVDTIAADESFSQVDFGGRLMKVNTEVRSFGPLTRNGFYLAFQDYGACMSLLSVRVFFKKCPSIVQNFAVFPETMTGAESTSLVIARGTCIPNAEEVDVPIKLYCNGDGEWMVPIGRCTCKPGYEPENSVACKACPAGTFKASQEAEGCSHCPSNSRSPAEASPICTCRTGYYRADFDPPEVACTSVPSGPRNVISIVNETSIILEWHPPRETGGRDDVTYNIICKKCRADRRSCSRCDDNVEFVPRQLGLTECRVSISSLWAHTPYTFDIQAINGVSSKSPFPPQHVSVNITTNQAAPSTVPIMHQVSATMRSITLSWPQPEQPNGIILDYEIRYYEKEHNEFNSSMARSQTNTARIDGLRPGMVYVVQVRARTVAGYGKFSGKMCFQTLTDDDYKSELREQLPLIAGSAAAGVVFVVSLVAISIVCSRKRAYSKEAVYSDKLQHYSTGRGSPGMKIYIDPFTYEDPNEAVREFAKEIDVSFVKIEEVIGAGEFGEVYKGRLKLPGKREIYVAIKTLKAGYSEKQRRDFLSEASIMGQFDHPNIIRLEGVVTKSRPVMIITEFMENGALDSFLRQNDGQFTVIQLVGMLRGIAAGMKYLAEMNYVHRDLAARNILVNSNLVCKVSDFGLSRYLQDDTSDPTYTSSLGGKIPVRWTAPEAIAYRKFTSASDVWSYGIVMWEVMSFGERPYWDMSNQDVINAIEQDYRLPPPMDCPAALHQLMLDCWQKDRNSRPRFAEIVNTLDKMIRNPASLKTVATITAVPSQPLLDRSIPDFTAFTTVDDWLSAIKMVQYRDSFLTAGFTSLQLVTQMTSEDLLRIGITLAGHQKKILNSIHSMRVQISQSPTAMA
Method in brief: as §1

ERN1 = molecular target: T16, ERN1 (Homo sapiens, UniProt O75460)
T16 construct: purchased DiscoveRx KINOMEscan
Method in brief: as §1

PRKCQ = molecular target: T17, PRKCQ (Homo sapiens, UniProt Q04759)
T17 construct: purchased DiscoveRx KINOMEscan
Method in brief: as §1

SRPK3 = molecular target: T18, SRPK3 (Homo sapiens, UniProt Q9UPE1)
T18 construct: purchased DiscoveRx KINOMEscan
Method in brief: as §1

HIPK3 = molecular target: T19, HIPK3 (Homo sapiens, UniProt Q9H422)
T19 construct: purchased DiscoveRx KINOMEscan
T19 sequence (Q9H422 whole entry): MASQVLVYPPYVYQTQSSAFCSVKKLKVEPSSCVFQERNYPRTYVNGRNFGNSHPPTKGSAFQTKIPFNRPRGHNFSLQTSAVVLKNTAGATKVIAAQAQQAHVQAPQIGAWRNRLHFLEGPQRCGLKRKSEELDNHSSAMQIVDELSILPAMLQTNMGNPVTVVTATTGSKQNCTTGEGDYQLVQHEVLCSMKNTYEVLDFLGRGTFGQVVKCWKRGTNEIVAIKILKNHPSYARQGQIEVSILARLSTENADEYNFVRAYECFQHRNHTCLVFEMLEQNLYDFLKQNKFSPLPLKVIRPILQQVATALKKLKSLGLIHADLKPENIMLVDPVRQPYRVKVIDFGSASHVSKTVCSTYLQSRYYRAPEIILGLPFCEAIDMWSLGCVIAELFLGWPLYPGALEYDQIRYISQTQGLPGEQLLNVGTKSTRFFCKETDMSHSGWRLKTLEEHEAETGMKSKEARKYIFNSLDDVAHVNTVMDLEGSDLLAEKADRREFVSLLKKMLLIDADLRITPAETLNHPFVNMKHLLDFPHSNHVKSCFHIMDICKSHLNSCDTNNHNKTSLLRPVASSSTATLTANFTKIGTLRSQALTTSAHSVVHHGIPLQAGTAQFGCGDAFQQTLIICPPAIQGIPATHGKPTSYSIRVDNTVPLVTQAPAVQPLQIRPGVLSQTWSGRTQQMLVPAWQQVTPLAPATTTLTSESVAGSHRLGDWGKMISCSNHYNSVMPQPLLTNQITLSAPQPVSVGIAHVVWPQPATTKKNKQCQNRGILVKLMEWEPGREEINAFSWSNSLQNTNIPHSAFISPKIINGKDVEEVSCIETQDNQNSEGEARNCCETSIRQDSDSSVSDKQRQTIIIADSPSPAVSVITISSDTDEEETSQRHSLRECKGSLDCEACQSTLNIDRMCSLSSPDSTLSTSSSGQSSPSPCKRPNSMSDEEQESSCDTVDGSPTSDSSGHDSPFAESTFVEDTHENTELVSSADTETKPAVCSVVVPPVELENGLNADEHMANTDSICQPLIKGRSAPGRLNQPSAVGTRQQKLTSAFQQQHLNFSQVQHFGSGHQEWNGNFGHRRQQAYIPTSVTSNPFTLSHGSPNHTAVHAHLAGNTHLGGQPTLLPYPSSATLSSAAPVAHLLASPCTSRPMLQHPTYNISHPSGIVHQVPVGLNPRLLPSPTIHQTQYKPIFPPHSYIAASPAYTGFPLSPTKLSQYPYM
Method in brief: as §1

[2] = molecular target: T20, RSK4(Kin.Dom.2-C-terminal) (Homo sapiens, UniProt Q9UK32)
T20 construct: RSK4(Kin.Dom.2-C-terminal); purchased DiscoveRx KINOMEscan
T20 sequence (Q9UK32 401-745 limits assumed): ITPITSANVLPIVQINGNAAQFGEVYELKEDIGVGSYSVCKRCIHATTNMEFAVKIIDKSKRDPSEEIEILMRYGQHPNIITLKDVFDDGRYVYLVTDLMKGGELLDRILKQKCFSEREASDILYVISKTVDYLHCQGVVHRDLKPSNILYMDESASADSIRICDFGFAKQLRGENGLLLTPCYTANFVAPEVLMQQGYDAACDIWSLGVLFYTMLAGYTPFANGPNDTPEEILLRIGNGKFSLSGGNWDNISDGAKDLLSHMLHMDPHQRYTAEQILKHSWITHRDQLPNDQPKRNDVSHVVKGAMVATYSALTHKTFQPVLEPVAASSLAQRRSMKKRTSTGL
Method in brief: as §1

TNK1 = molecular target: T21, TNK1 (Homo sapiens, UniProt Q13470)
T21 construct: purchased DiscoveRx KINOMEscan
Method in brief: as §1

PRKG1 = molecular target: T22, PRKG1 (Homo sapiens, UniProt Q13976)
T22 construct: purchased DiscoveRx KINOMEscan
T22 sequence (Q13976 whole entry): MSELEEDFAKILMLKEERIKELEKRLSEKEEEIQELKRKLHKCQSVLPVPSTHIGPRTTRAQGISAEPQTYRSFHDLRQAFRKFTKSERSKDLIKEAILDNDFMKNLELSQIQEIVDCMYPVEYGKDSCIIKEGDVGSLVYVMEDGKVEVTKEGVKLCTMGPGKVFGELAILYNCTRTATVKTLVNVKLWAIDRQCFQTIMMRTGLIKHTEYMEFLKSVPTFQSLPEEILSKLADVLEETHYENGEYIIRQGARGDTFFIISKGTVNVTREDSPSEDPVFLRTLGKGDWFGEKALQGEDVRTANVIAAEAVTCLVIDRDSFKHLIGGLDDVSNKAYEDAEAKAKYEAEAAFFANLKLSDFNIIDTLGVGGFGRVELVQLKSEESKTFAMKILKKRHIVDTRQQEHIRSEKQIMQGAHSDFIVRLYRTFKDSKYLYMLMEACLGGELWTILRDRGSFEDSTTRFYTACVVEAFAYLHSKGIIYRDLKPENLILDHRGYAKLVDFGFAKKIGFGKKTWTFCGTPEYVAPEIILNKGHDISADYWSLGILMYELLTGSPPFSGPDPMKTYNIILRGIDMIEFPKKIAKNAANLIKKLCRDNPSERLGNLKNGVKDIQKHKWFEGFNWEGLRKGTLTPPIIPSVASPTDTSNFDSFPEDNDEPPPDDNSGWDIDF
Method in brief: as §1

[3] = molecular target: T23, RSK3(Kin.Dom.2-C-terminal) (Homo sapiens, UniProt Q15349)
T23 construct: RSK3(Kin.Dom.2-C-terminal); purchased DiscoveRx KINOMEscan
Method in brief: as §1

[4] = molecular target: T24, RSK3(Kin.Dom.1-N-terminal) (Homo sapiens, UniProt Q15349)
T24 construct: RSK3(Kin.Dom.1-N-terminal); purchased DiscoveRx KINOMEscan
T24 sequence (Q15349 1-388 limits assumed): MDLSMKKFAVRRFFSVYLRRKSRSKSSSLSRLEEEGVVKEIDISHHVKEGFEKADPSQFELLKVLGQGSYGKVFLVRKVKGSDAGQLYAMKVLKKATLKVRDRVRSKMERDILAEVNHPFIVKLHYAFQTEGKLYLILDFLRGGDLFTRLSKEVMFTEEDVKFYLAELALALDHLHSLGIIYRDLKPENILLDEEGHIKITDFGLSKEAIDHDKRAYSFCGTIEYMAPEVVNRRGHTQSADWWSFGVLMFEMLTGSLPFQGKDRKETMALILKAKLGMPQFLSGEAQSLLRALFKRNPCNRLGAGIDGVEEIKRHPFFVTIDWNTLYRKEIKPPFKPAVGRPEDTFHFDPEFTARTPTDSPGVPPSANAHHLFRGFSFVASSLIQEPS
Method in brief: as §1

CAMK1G = molecular target: T25, CAMK1G (Homo sapiens, UniProt Q96NX5)
T25 construct: purchased DiscoveRx KINOMEscan
Method in brief: as §1

NEK9 = molecular target: T26, NEK9 (Homo sapiens, UniProt Q8TD19)
T26 construct: purchased DiscoveRx KINOMEscan
Method in brief: as §1

ROCK1 = molecular target: T27, ROCK1 (Homo sapiens, UniProt Q13464)
T27 construct: purchased DiscoveRx KINOMEscan
Method in brief: as §1

CDKL1 = molecular target: T28, CDKL1 (Homo sapiens, UniProt Q00532)
T28 construct: purchased DiscoveRx KINOMEscan
Method in brief: as §1

Cc1ccc(C2=Nc3cccnc3S(=O)(=O)c3ccccc32)cc1 [TBPT, 6-(p-tolyl)benzo[f] pyrido[2,3-b][1,4] thiazepine 11,11-dioxide]
remaining binding at 5 µM (S6K1; 5 μM): 100%
remaining binding at 10 µM (S6K1; 10 μM): 88%
remaining binding at 5 µM (CDK4-cyclinD1; 5 μM): 100%
remaining binding at 10 µM (CDK4-cyclinD1; 10 μM): 79%
remaining binding at 5 µM (AURKC; 5 μM): 85%
remaining binding at 10 µM (AURKC; 10 μM): 96%
remaining binding at 5 µM (MAP4K2; 5 μM): 92%
remaining binding at 10 µM (MAP4K2; 10 μM): 100%
remaining binding at 5 µM (MYLK2; 5 μM): 100%
remaining binding at 10 µM (MYLK2; 10 μM): 82%
remaining binding at 5 µM ([1]; 5 μM): 75%
remaining binding at 10 µM ([1]; 10 μM): 100%
remaining binding at 5 µM (RET; 5 μM): 100%
remaining binding at 10 µM (RET; 10 μM): 87%
remaining binding at 5 µM (PRKCI; 5 μM): 95%
remaining binding at 10 µM (PRKCI; 10 μM): 91%
remaining binding at 5 µM (LOK; 5 μM): 100%
remaining binding at 10 µM (LOK; 10 μM): 92%
remaining binding at 5 µM (TRKB; 5 μM): 96%
remaining binding at 10 µM (TRKB; 10 μM): 100%
remaining binding at 5 µM (ROCK2; 5 μM): 100%
remaining binding at 10 µM (ROCK2; 10 μM): 92%
remaining binding at 5 µM (SRC; 5 μM): 87%
remaining binding at 10 µM (SRC; 10 μM): 100%
remaining binding at 5 µM (EGFR(L858R,T790M); 5 μM): 78%
remaining binding at 10 µM (EGFR(L858R,T790M); 10 μM): 88%
remaining binding at 5 µM (MAPKAPK5; 5 μM): 100%
remaining binding at 10 µM (MAPKAPK5; 10 μM): 88%
remaining binding at 5 µM (EPHB1; 5 μM): 100%
remaining binding at 10 µM (EPHB1; 10 μM): 100%
remaining binding at 5 µM (ERN1; 5 μM): 92%
remaining binding at 10 µM (ERN1; 10 μM): 100%
remaining binding at 5 µM (PRKCQ; 5 μM): 100%
remaining binding at 10 µM (PRKCQ; 10 μM): 100%
remaining binding at 5 µM (SRPK3; 5 μM): 100%
remaining binding at 10 µM (SRPK3; 10 μM): 89%
remaining binding at 5 µM (HIPK3; 5 μM): 100%
remaining binding at 10 µM (HIPK3; 10 μM): 100%
remaining binding at 5 µM ([2]; 5 μM): 94%
remaining binding at 10 µM ([2]; 10 μM): 57%
remaining binding at 5 µM (TNK1; 5 μM): 100%
remaining binding at 10 µM (TNK1; 10 μM): 97%
remaining binding at 5 µM (PRKG1; 5 μM): 96%
remaining binding at 10 µM (PRKG1; 10 μM): 100%
remaining binding at 5 µM ([3]; 5 μM): 100%
remaining binding at 10 µM ([3]; 10 μM): 100%
remaining binding at 5 µM ([4]; 5 μM): 100%
remaining binding at 10 µM ([4]; 10 μM): 82%
remaining binding at 5 µM (CAMK1G; 5 μM): 100%
remaining binding at 10 µM (CAMK1G; 10 μM): 100%
remaining binding at 5 µM (NEK9; 5 μM): 100%
remaining binding at 10 µM (NEK9; 10 μM): 88%
remaining binding at 5 µM (ROCK1; 5 μM): 84%
remaining binding at 10 µM (ROCK1; 10 μM): 100%
remaining binding at 5 µM (CDKL1; 5 μM): 94%
remaining binding at 10 µM (CDKL1; 10 μM): 88%
